Source: patent US20060069132A1, “Azolecarboxamide herbicides” (priority 2004, published 2006)

Experiments:
Surinam grass = assay: Test C pre-/postemergence herbicide test; format: in vivo, Urochloa decumbens; settings: for Surinam Grass plant response rating: Preemergence, scale 0 to 100, 0 no effect, 100 complete control
Summary of the method: (§1)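 Seeds were planted and sprayed preemergence with test chemicals in a non-phytotoxic solvent mixture containing surfactant; postemergence treatments went onto plants 2 to 18 cm tall (1- to 4-leaf stage). After 12 to 14 days in a greenhouse, injury was rated visually against untreated controls on a 0–100 scale.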

corn = assay: Test C pre-/postemergence herbicide test; format: in vivo, Zea mays; settings: for Corn plant response rating: Preemergence, scale 0 to 100, 0 no effect, 100 complete control
Summary of the method: as §1

woolly cupgrass = assay: Test C pre-/postemergence herbicide test; format: in vivo, Eriochloa villosa; settings: for Cupgrass, Woolly plant response rating: Preemergence, scale 0 to 100, 0 no effect, 100 complete control
Summary of the method: as §1

johnsongrass = assay: Test C pre-/postemergence herbicide test; format: in vivo, Sorghum halepense; settings: for Johnsongrass plant response rating: Preemergence, scale 0 to 100, 0 no effect, 100 complete control
Summary of the method: as §1

eastern black nightshade = assay: Test C pre-/postemergence herbicide test; format: in vivo, Solanum ptycanthum; settings: for Nightshade plant response rating: Preemergence, scale 0 to 100, 0 no effect, 100 complete control
Summary of the method: as §1

[1] = tested on: common (oilseed) sunflower; assay: Test C pre-/postemergence herbicide test; format: in vivo, Helianthus annuus; settings: for Sunflower plant response rating: Preemergence, 500 g ai/ha, scale 0 to 100, 0 no effect, 100 complete control
Summary of the method: as §1

velvetleaf = assay: Test C pre-/postemergence herbicide test; format: in vivo, Abutilon theophrasti; settings: for Velvetleaf plant response rating: Preemergence, scale 0 to 100, 0 no effect, 100 complete control
Summary of the method: as §1

[2] = tested on: smallflower umbrella sedge; assay: Test C flooded paddy test; format: in vivo, Cyperus difformis
[3] = 125 g ai/ha, scale 0 (no effect) to 100 (complete control), visual, 12 to 14 days, preemergence
[4] = 250 g ai/ha, scale 0 to 100 (0 no effect, 100 complete control), visual, 12 to 14 days, preemergence
[5] = 62 g ai/ha, scale 0 to 100 (0 no effect, 100 complete control)
[6] = 62 g ai/ha, preemergence, scale 0 to 100
[7] = 250 g ai/ha, scale of 0 to 100, 0 is no effect, 100 is complete control
[8] = 250 g ai/ha, scale 0-100, preemergence
[9] = 500 g ai/ha, scale 0 to 100 (0 no effect, 100 complete control), visual, 12 to 14 days, preemergence

## CCN(C)C(=O)c1cccc(NC(=O)c2cc(C(C)(C)C)nn2CC)c1 [Compound 48]
Surinam grass; 62 g ai/ha, preemergence
  Plant response rating (0 = no effect, 100 = complete control), Surinam Grass: 0
Surinam grass; [3]
  Plant response rating, Surinam Grass: 5
Surinam grass; [4]
  Plant response rating, Surinam Grass: 30
Surinam grass; 500 g ai/ha
  Surinam Grass plant response rating: 60
corn; 62 g ai/ha, preemergence
  Plant response rating (0 = no effect, 100 = complete control), Corn: 0
corn; [3]
  Plant response rating, Corn: 0
corn; [4]
  Plant response rating, Corn: 0
corn; 500 g ai/ha
  Corn plant response rating: 0
Woolly cupgrass; 62 g ai/ha, preemergence
  Plant response rating (0 = no effect, 100 = complete control), Cupgrass, Woolly: 0
Woolly cupgrass; [3]
  Plant response rating, Cupgrass, Woolly: 0
Woolly cupgrass; [4]
  Plant response rating, Cupgrass, Woolly: 5
Woolly cupgrass; 500 g ai/ha
  Cupgrass, Woolly plant response rating: 20
johnsongrass; 62 g ai/ha, preemergence
  Plant response rating (0 = no effect, 100 = complete control), Johnsongrass: 10
johnsongrass; [3]
  Plant response rating, Johnsongrass: 20
johnsongrass; [4]
  Plant response rating, Johnsongrass: 50
johnsongrass; 500 g ai/ha
  Johnsongrass plant response rating: 85
Eastern black nightshade; 62 g ai/ha, preemergence
  Plant response rating (0 = no effect, 100 = complete control), Nightshade: 50
Eastern black nightshade; [3]
  Plant response rating, Nightshade: 80
Eastern black nightshade; [4]
  Plant response rating, Nightshade: 95
Eastern black nightshade; 500 g ai/ha
  Nightshade plant response rating: 100
[1]; 62 g ai/ha, preemergence
  Plant response rating (0 = no effect, 100 = complete control), Sunflower: 0
[1]; [3]
  Plant response rating, Sunflower: 0
[1]; [4]
  Plant response rating, Sunflower: 0
[1]
  Sunflower plant response rating: 0
velvetleaf; 62 g ai/ha, preemergence
  Plant response rating (0 = no effect, 100 = complete control), Velvetleaf: 0
velvetleaf; [3]
  Plant response rating, Velvetleaf: 0
velvetleaf; [4]
  Plant response rating, Velvetleaf: 10
velvetleaf; 500 g ai/ha
  Velvetleaf plant response rating: 70
[2]; 16 g ai/ha, scale 0 to 100
  Sedge, Umbrella plant response rating: 0
[2]; 31 g ai/ha, scale 0 to 100
  Sedge, Umbrella plant response rating: 0
[2]; [5]
  Sedge, Umbrella plant response rating: 60
[2]; 125 g ai/ha, scale of 0 to 100, 0 is no effect, 100 is complete control
  Sedge, Umbrella plant response rating: 60

## CCn1nc(C(C)(C)C)cc1C(=O)Nc1cccc(C(N)=O)n1 [Compound 162, 6-[[[3-(1,1-dimethylethyl)-1-ethyl-1H-pyrazol-5-yl]carbonyl]amino]-2-pyridinecarboxamide]
Surinam grass; [6]
  Plant response rating, Surinam Grass: 0
Surinam grass; [3]
  Plant response rating, Surinam Grass: 75
Surinam grass; 500 g ai/ha
  Surinam Grass plant response rating: 95
corn; [6]
  Plant response rating, Corn: 20
corn; [3]
  Plant response rating, Corn: 70
corn; [4]
  Plant response rating, Corn: 75
corn; 500 g ai/ha
  Corn plant response rating: 75
Woolly cupgrass; [6]
  Plant response rating, Cupgrass, Woolly: 0
Woolly cupgrass; [3]
  Plant response rating, Cupgrass, Woolly: 0
Woolly cupgrass; [4]
  Plant response rating, Cupgrass, Woolly: 0
Woolly cupgrass; 500 g ai/ha
  Cupgrass, Woolly plant response rating: 100
johnsongrass; [6]
  Plant response rating, Johnsongrass: 65
johnsongrass; [3]
  Plant response rating, Johnsongrass: 80
johnsongrass; 500 g ai/ha
  Johnsongrass plant response rating: 95
Eastern black nightshade; [6]
  Plant response rating, Nightshade: 80
Eastern black nightshade; [3]
  Plant response rating, Nightshade: 100
Eastern black nightshade; 500 g ai/ha
  Nightshade plant response rating: 100
[1]; [6]
  Plant response rating, Sunflower: 0
[1]; [3]
  Plant response rating, Sunflower: 15
[1]
  Sunflower plant response rating: 90
velvetleaf; [6]
  Plant response rating, Velvetleaf: 70
velvetleaf; [3]
  Plant response rating, Velvetleaf: 75
velvetleaf; 500 g ai/ha
  Velvetleaf plant response rating: 100
[2]; [5]
  Sedge, Umbrella plant response rating: 70
[2]; [7]
  Sedge, Umbrella plant response rating: 75

## CCc1nn(C(C)(C)C)cc1C(=O)Nc1cc(C(=O)N(C)C)ccn1 [Compound 293]
Surinam grass; [8]
  Plant response rating, Surinam Grass: 100
Surinam grass; [9]
  Plant response rating, Surinam Grass: 100
corn; [3]
  Plant response rating, Corn: 10
corn; [8]
  Plant response rating, Corn: 80
corn; [9]
  Plant response rating, Corn: 95
Woolly cupgrass; [6]
  Plant response rating, Cupgrass, Woolly: 45
Woolly cupgrass; [3]
  Plant response rating, Cupgrass, Woolly: 70
Woolly cupgrass; [8]
  Plant response rating, Cupgrass, Woolly: 95
Woolly cupgrass; [9]
  Plant response rating, Cupgrass, Woolly: 100
johnsongrass; [6]
  Plant response rating, Johnsongrass: 65
johnsongrass; [3]
  Plant response rating, Johnsongrass: 95
johnsongrass; [8]
  Plant response rating, Johnsongrass: 100
johnsongrass; [9]
  Plant response rating, Johnsongrass: 100
Eastern black nightshade; [6]
  Plant response rating, Nightshade: 65
Eastern black nightshade; [3]
  Plant response rating, Nightshade: 100
Eastern black nightshade; [8]
  Plant response rating, Nightshade: 100
Eastern black nightshade; [9]
  Plant response rating, Nightshade: 100
[1]; [6]
  Plant response rating, Sunflower: 10
[1]; [8]
  Plant response rating, Sunflower: 65
velvetleaf; [6]
  Plant response rating, Velvetleaf: 80
velvetleaf; [8]
  Plant response rating, Velvetleaf: 100
velvetleaf; [9]
  Plant response rating, Velvetleaf: 100
[2]; 62 g ai/ha, scale 0 to 100
  Sedge, Umbrella plant response rating: 20
[2]; 125 g ai/ha, scale 0 to 100 (0 no effect, 100 complete control)
  Sedge, Umbrella plant response rating: 75
[2]; [7]
  Sedge, Umbrella plant response rating: 80
[2]; 500 g ai/ha, visual rating after 12 to 14 days, scale 0 to 100 (0 no effect, 100 complete control)
  Plant response rating, Sedge, Umbrella: 90
